Counter-ions that a name gives are not always drawn.
Compound | melting point [°C]
O=c1[nH]c2c(O)cccc2c(=O)n1CCCN1CC=C(c2ccc(Cl)cc2)CC1 (as salt: hydrobromid) | 284 to 286
O=c1[nH]c2cccc(Cl)c2c(=O)n1CCCN1CC=C(c2ccc(Cl)cc2)CC1 (as salt: maleate) | 190 to 194
O=c1[nH]c2c(Cl)cc(Cl)cc2c(=O)n1CCCN1CC=C(c2ccc(Cl)cc2)CC1 (as salt: maleate) | 197 to 199
Cc1ccc(C)c2c(=O)n(CCCN3CC=C(c4ccc(Cl)cc4)CC3)c(=O)[nH]c12 (as salt: maleate) | 212 to 220
Cc1c(Cl)ccc2c(=O)n(CCCN3CC=C(c4ccc(Cl)cc4)CC3)c(=O)[nH]c12 (as salt: maleate) | 208 to 210
Cc1cc(Br)c2[nH]c(=O)n(CCCN3CC=C(c4ccc(Cl)cc4)CC3)c(=O)c2c1 (as salt: maleate) | 212 to 214
Cc1ccc(C2=CCN(CCCn3c(=O)[nH]c4cccc(C)c4c3=O)CC2)cc1 (as salt: maleate) | 165 to 170
O=c1[nH]c2c(Cl)cccc2c(=O)n1CCCN1CC=C(c2cccc(C(F)(F)F)c2)CC1 (as salt: maleate) | 205 to 210
Cc1cccc2[nH]c(=O)n(CCCN3CC=C(c4cccc(C(F)(F)F)c4)CC3)c(=O)c12 (as salt: maleate) | 158 to 160

Further lines, results first:

melting point [°C] | Compound
197 to 198 | O=c1[nH]c2cc(F)ccc2c(=O)n1CCCN1CC=C(c2ccc(Cl)cc2)CC1 (as salt: maleate)
197 to 198 | O=c1[nH]c2ccc(Cl)cc2c(=O)n1CCCN1CC=C(c2ccc(Cl)cc2)CC1 (as salt: maleate)
225 to 227 | O=c1[nH]c2cc(Cl)ccc2c(=O)n1CCCN1CC=C(c2ccc(Cl)cc2)CC1 (as salt: maleate)
175 to 178 | Cc1cccc2[nH]c(=O)n(CCCN3CC=C(c4ccc(Cl)cc4)CC3)c(=O)c12 (as salt: maleate)
199 to 201 | Cc1ccc2c(=O)n(CCCN3CC=C(c4ccc(Cl)cc4)CC3)c(=O)[nH]c2c1 (as salt: maleate)
215 to 217 | Cc1cccc2c(=O)n(CCCN3CC=C(c4ccc(Cl)cc4)CC3)c(=O)[nH]c12 (as salt: maleate)
205 to 207 | O=c1[nH]c2ccc([N+](=O)[O-])cc2c(=O)n1CCCN1CC=C(c2ccc(Cl)cc2)CC1 (as salt: maleate)
210 to 212 | O=c1[nH]c2cc([N+](=O)[O-])ccc2c(=O)n1CCCN1CC=C(c2ccc(Cl)cc2)CC1 (as salt: maleate)
